We go through 13 molecules from patent US10370343B2, “[6,6] Fused bicyclic HDAC8 inhibitors” (FORMA Therapeutics, Inc., priority 2015, dated 2019).

The target in this test is T1, Recombinant N-terminal GST tag full-length human HDAC8 (Homo sapiens, UniProt Q9BY41).
T1 construct: Recombinant N-terminal GST tag full-length human HDAC8; purchased SignalChem H90-30G-1000; host or cells: baculovirus in Sf9 insect cells
T1 sequence (Q9BY41 1-377): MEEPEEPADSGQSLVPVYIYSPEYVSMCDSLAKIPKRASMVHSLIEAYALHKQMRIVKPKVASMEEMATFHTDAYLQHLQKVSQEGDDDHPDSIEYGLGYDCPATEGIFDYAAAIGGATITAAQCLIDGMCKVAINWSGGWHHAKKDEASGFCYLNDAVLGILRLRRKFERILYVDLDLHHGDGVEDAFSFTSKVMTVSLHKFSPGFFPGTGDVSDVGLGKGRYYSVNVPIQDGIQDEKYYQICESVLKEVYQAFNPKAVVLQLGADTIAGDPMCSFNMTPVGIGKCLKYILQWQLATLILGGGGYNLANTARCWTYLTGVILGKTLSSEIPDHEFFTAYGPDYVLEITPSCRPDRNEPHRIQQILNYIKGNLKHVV
Briefly: HDAC8 probe binding assay, time resolved fluorescence (TRF) format. The following applies: compounds grouped by IC50 range (Table 2). The procedure:
The HDAC8 probe binding assay was performed using a time resolved fluorescence (TRF) assay format. Recombinant N-terminal GST tag full-length human HDAC8 was expressed and purified from baculovirus in Sf9 insect cells (SignalChem, #[…]-1000). […] Plates were incubated for 16 hours at room temperature before time resolved fluorescence was read on the Envision (Excitation at 340 nm, and Emission at 485 nm and 535 nm, Perkin Elmer). Data from HDAC8 Assays were reported as percent inhibition (inh) compared with control wells based on the following equation: % inh=1-((FLU-AveLow)/(AveHigh-AveLow)) where FLU=measured time resolved fluorescence. AveLow=average time resolved fluorescence of no enzyme control (n=32). AveHigh=average time resolved fluorescence of DMSO control (n=32). IC50 values were determined by curve fitting of the standard 4 parameter logistic fitting algorithm included in the Activity Base software package: IDBS XE Designer Model205. Data is fitted using the Levenburg Marquardt algorithm. Ranges of IC50 values for compounds of the invention are disclosed in Table 2: Table 2. provides the compounds arranged according to […] determined in a time resolved fluorescence (TRF) assay. The compounds are separated into four groups: […]

With `Cc1nc2ccc(CN3C(=O)COc4ccc(C(=O)NO)cc43)cc2o1` [Compound I-239, N-hydroxy-4-((2-methylbenzo[d]oxazol-6-yl)methyl)-3-oxo-3,4-dihydro-2H-benzo[b][1,4]oxazine-6-carboxamide], the IC50 is not above 25 nM.
Turning to `Cn1cc2ccc(CN3C(=O)COc4ccc(C(=O)NO)cc43)cc2n1` [Compound I-240, N-hydroxy-4-((2-methyl-2H-indazol-6-yl)methyl)-3-oxo-3,4-dihydro-2H-benzo[b][1,4]oxazine-6-carboxamide], the IC50 is not above 25 nM.
As to `Cc1cc2oc(CN3C(=O)COc4ccc(C(=O)NO)cc43)nc2cc1Cl` [Compound I-261, 4-((5-chloro-6-methylbenzo[d]oxazol-2-yl)methyl)-N-hydroxy-3-oxo-3,4-dihydro-2H-benzo[b][1,4]oxazine-6-carboxamide], the IC50 is not above 25 nM.
For `O=C(NO)c1ccc2c(c1)N(Cc1ccc(C(F)(F)F)c(F)c1)C(=O)CO2` [Compound I-266, 4-(3-fluoro-4-(trifluoromethyl)benzyl)-N-hydroxy-3-oxo-3,4-dihydro-2H-benzo[b][1,4]oxazine-6-carboxamide], the IC50 was not above 25 nM.
Consider `O=C(NO)c1ccc2c(c1)N(Cc1nc3ccc(Cl)cc3o1)C(=O)CO2` [Compound I-287, 4-((6-chlorobenzo[d]oxazol-2-yl)methyl)-N-hydroxy-3-oxo-3,4-dihydro-2H-benzo[b][1,4]oxazine-6-carboxamide], for which the 50% inhibitory concentration (IC50) was not above 25 nM.
With `O=C(NO)c1ccc2c(c1)N(Cc1nc3ccccc3s1)C(=O)CO2` [Compound I-289, 4-(benzo[d]thiazol-2-ylmethyl)-N-hydroxy-3-oxo-3,4-dihydro-2H-benzo[b][1,4]oxazine-6-carboxamide], the IC50 is not above 25 nM.
Turning to `CC1(C)Oc2ccc(C(=O)NO)cc2N(Cc2nc3ccc(F)cc3o2)C1=O` [Compound I-291, 4-((6-fluorobenzo[d]oxazol-2-yl)methyl)-N-hydroxy-2,2-dimethyl-3-oxo-3,4-dihydro-2H-benzo[b][1,4]oxazine-6-carboxamide], the IC50 is not above 25 nM.
Regarding `CC1(C)Oc2ccc(C(=O)NO)cc2N(Cc2nc3ccc(Cl)cc3o2)C1=O` [Compound I-294, 4-((6-chlorobenzo[d]oxazol-2-yl)methyl)-N-hydroxy-2,2-dimethyl-3-oxo-3,4-dihydro-2H-benzo[b][1,4]oxazine-6-carboxamide], the IC50 is not above 25 nM.
As for `CC1(C)Oc2ccc(C(=O)NO)cc2N(Cc2nc3ccccc3s2)C1=O` [Compound I-295, 4-(benzo[d]thiazol-2-ylmethyl)-N-hydroxy-2,2-dimethyl-3-oxo-3,4-dihydro-2H-benzo[b][1,4]oxazine-6-carboxamide], the IC50 lay in the range of 25 to 100 nM.
As for `CC1(C)Oc2ccc(C(=O)NO)cc2N(CCCc2ccccc2)C1=O` [Compound I-298, N-hydroxy-2,2-dimethyl-3-oxo-4-(3-phenylpropyl)-3,4-dihydro-2H-benzo[b][1,4]oxazine-6-carboxamide], the IC50 is 25 to 100 nM.
On to `CC1(C)Oc2ccc(C(=O)NO)cc2N(Cc2c(Cl)cccc2Cl)C1=O` [Compound I-299, 4-(2,6-dichlorobenzyl)-N-hydroxy-2,2-dimethyl-3-oxo-3,4-dihydro-2H-benzo[b][1,4]oxazine-6-carboxamide], for which the concentration for half-maximal inhibition (IC50) lay within 25 to 100 nM.
Take `CC1(C)Oc2ccc(C(=O)NO)cc2N(Cc2cccc(C(F)(F)F)c2)C1=O` [Compound I-300, N-hydroxy-2,2-dimethyl-3-oxo-4-(3-(trifluoromethyl)benzyl)-3,4-dihydro-2H-benzo[b][1,4]oxazine-6-carboxamide]: the concentration for half-maximal inhibition (IC50) lay in the range of 25 to 100 nM.
In the case of `CC1(C)Oc2ccc(C(=O)NO)cc2N(Cc2ccccc2OC(F)(F)F)C1=O` [Compound I-302, N-hydroxy-2,2-dimethyl-3-oxo-4-(2-(trifluoromethoxy)benzyl)-3,4-dihydro-2H-benzo[b][1,4]oxazine-6-carboxamide], the IC50 is 25 to 100 nM.

By IC50 is commonly meant the point on the concentration scale where inhibition reaches its midpoint.
